Measured values: the supplement of paper PMC10307832

Experiments:
Test in all cases: relative viability (nuclei count vs DMSO), 5 days (fraction); higher = more cells survive
[1] = test system: NCI-H322M
Method in brief: (§1)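 Lung cancer cell lines in 1536-well plates were dosed by pin tool the day after seeding, either with one drug alone or with a fixed anchor-drug dose plus five library-drug doses (not always all listed) in √10 steps. After 5 days, cells were fixed and their nuclei stained in one step (final 0.05% Triton X-100, 1% formaldehyde, 1 ug/ml Hoechst), then counted on 4× images. Relative viability is the nuclei count in treated wells divided by that in vehicle wells. Values are medians of duplicate plates.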

[2] = test system: EKVX
Method in brief: as §1

[3] = test system: NCI-H2405
Method in brief: as §1

[4] = test system: NCI-H661
Method in brief: as §1

[5] = test system: ABC-1
Method in brief: as §1

[6] = test system: LK-2
Method in brief: as §1

[7] = test system: NCI-H2228
Method in brief: as §1

[8] = test system: NCI-H1734
Method in brief: as §1

[9] = test system: CAL-12T
Method in brief: as §1

[10] = test system: SW 1573
Method in brief: as §1

[11] = test system: NCI-H2342
Method in brief: as §1

[12] = test system: NCI-H520
Method in brief: as §1

[13] = test system: COR-L23
Method in brief: as §1

[14] = test system: NCI-H1355
Method in brief: as §1

[15] = test system: PC-14
Method in brief: as §1

[16] = test system: HCC-827
Method in brief: as §1

[17] = test system: RERF-LC-KJ
Method in brief: as §1

[18] = test system: NCI-H1437
Method in brief: as §1

[19] = test system: NCI-H1650
Method in brief: as §1

[20] = test system: H3255
Method in brief: as §1

[21] = test system: HCC-15
Method in brief: as §1

[22] = test system: PC-3 [JPC-3]
Method in brief: as §1

Structure (SMILES): NC(=O)Nc1cc(-c2cccc(F)c2)sc1C(=O)N[C@H]1CCCNC1 [AZD7762] + O=C(CCCCCCC(=O)Nc1ccccc1)NO [Vorinostat] (partner 1 µM)
- relative viability ([1]; first compound 0.01 µM): 0.822
- relative viability ([1]; first compound 0.03162 µM): 0.967
- relative viability ([1]; first compound 0.1 µM): 0.935
- relative viability ([1]; first compound 0.3162 µM): 0.792
- relative viability ([1]; first compound 1 µM): 0.478
- relative viability ([2]; first compound 0.01 µM): 0.78
- relative viability ([2]; first compound 0.03162 µM): 0.758
- relative viability ([2]; first compound 0.1 µM): 0.707
- relative viability ([2]; first compound 0.3162 µM): 0.794
- relative viability ([2]; first compound 1 µM): 0.461
- relative viability ([3]; first compound 0.01 µM): 1.08
- relative viability ([3]; first compound 0.03162 µM): 1.08
- relative viability ([3]; first compound 0.1 µM): 0.976
- relative viability ([3]; first compound 0.3162 µM): 0.756
- relative viability ([3]; first compound 1 µM): 0.521
- relative viability ([4]; first compound 0.01 µM): 0.929
- relative viability ([4]; first compound 0.03162 µM): 0.867
- relative viability ([4]; first compound 0.1 µM): 0.98
- relative viability ([4]; first compound 0.3162 µM): 0.604
- relative viability ([4]; first compound 1 µM): 0.341
- relative viability ([5]; first compound 0.01 µM): 0.847
- relative viability ([5]; first compound 0.03162 µM): 1.47
- relative viability ([5]; first compound 0.1 µM): 1.04
- relative viability ([5]; first compound 0.3162 µM): 0.976
- relative viability ([5]; first compound 1 µM): 0.314
- relative viability ([6]; first compound 0.01 µM): 0.307
- relative viability ([6]; first compound 0.03162 µM): 0.316
- relative viability ([6]; first compound 0.1 µM): 0.272
- relative viability ([6]; first compound 0.3162 µM): 0.468
- relative viability ([6]; first compound 1 µM): 0.283
- relative viability ([7]; first compound 0.01 µM): 1.06
- relative viability ([7]; first compound 0.03162 µM): 0.443
- relative viability ([7]; first compound 0.1 µM): 0.59
- relative viability ([7]; first compound 0.3162 µM): 0.383
- relative viability ([7]; first compound 1 µM): 0.299
- relative viability ([8]; first compound 0.01 µM): 0.772
- relative viability ([8]; first compound 0.03162 µM): 0.723
- relative viability ([8]; first compound 0.1 µM): 0.738
- relative viability ([8]; first compound 0.3162 µM): 0.415
- relative viability ([8]; first compound 1 µM): 0.251
- relative viability ([9]; first compound 0.01 µM): 0.861
- relative viability ([9]; first compound 0.03162 µM): 0.693
- relative viability ([9]; first compound 0.1 µM): 0.9
- relative viability ([9]; first compound 0.3162 µM): 0.276
- relative viability ([9]; first compound 1 µM): 0.167
- relative viability ([10]; first compound 0.01 µM): 1.16
- relative viability ([10]; first compound 0.03162 µM): 0.994
- relative viability ([10]; first compound 0.1 µM): 0.821
- relative viability ([10]; first compound 0.3162 µM): 0.648
- relative viability ([10]; first compound 1 µM): 0.102
- relative viability ([11]; first compound 0.01 µM): 0.715
- relative viability ([11]; first compound 0.03162 µM): 0.85
- relative viability ([11]; first compound 0.1 µM): 0.722
- relative viability ([11]; first compound 0.3162 µM): 0.74
- relative viability ([11]; first compound 1 µM): 0.633
- relative viability ([12]; first compound 0.01 µM): 0.78
- relative viability ([12]; first compound 0.03162 µM): 0.825
- relative viability ([12]; first compound 0.1 µM): 0.635
- relative viability ([12]; first compound 0.3162 µM): 0.375
- relative viability ([12]; first compound 1 µM): 0.187
- relative viability ([13]; first compound 0.01 µM): 0.562
- relative viability ([13]; first compound 0.03162 µM): 0.423
- relative viability ([13]; first compound 0.1 µM): 0.246
- relative viability ([13]; first compound 0.3162 µM): 0.129
- relative viability ([13]; first compound 1 µM): 0.0864
- relative viability ([14]; first compound 0.01 µM): 0.609
- relative viability ([14]; first compound 0.03162 µM): 0.629
- relative viability ([14]; first compound 0.1 µM): 0.649
- relative viability ([14]; first compound 0.3162 µM): 0.647
- relative viability ([14]; first compound 1 µM): 0.379
- relative viability ([15]; first compound 0.01 µM): 0.761
- relative viability ([15]; first compound 0.03162 µM): 0.591
- relative viability ([15]; first compound 0.1 µM): 0.57
- relative viability ([15]; first compound 0.3162 µM): 0.292
- relative viability ([15]; first compound 1 µM): 0.0419
- relative viability ([16]; first compound 0.01 µM): 0.984
- relative viability ([16]; first compound 0.03162 µM): 0.947
- relative viability ([16]; first compound 0.1 µM): 0.846
- relative viability ([16]; first compound 0.3162 µM): 0.753
- relative viability ([16]; first compound 1 µM): 0.618
- relative viability ([17]; first compound 0.01 µM): 0.749
- relative viability ([17]; first compound 0.03162 µM): 0.695
- relative viability ([17]; first compound 0.1 µM): 0.711
- relative viability ([17]; first compound 0.3162 µM): 0.722
- relative viability ([17]; first compound 1 µM): 0.601
- relative viability ([18]; first compound 0.01 µM): 0.964
- relative viability ([18]; first compound 0.03162 µM): 0.85
- relative viability ([18]; first compound 0.1 µM): 0.88
- relative viability ([18]; first compound 0.3162 µM): 0.639
- relative viability ([18]; first compound 1 µM): 0.49
- relative viability ([19]; first compound 0.01 µM): 0.622
- relative viability ([19]; first compound 0.03162 µM): 0.719
- relative viability ([19]; first compound 0.1 µM): 0.651
- relative viability ([19]; first compound 0.3162 µM): 0.392
- relative viability ([19]; first compound 1 µM): 0.157
- relative viability ([20]; first compound 0.01 µM): 0.944
- relative viability ([20]; first compound 0.03162 µM): 0.831
- relative viability ([20]; first compound 0.1 µM): 0.809
- relative viability ([20]; first compound 0.3162 µM): 0.722
- relative viability ([20]; first compound 1 µM): 0.684
- relative viability ([21]; first compound 0.01 µM): 0.844
- relative viability ([21]; first compound 0.03162 µM): 0.691
- relative viability ([21]; first compound 0.1 µM): 0.908
- relative viability ([21]; first compound 0.3162 µM): 0.734
- relative viability ([21]; first compound 1 µM): 0.723
- relative viability ([22]; first compound 0.01 µM): 0.644
- relative viability ([22]; first compound 0.03162 µM): 0.888
- relative viability ([22]; first compound 0.1 µM): 0.759
- relative viability ([22]; first compound 0.3162 µM): 0.607
- relative viability ([22]; first compound 1 µM): 0.501
